Laboratory results from EP4813463A2, “TYK2 INHIBITORS AND COMPOSITIONS AND METHODS THEREOF” (Lynk Pharmaceuticals Co. Ltd., priority 2023, dated 2024).
Read-outs that look alike come from different tables or passages of the source.

Assays:
JAK1-JH2 domain = molecular target: T1, JAK1-JH2 domain (Homo sapiens, UniProt P23458); experiment: Binding activity test for JH2 domain of JAK1 (Tb-antibody/tracer FRET); conditions: JH2 domain enzyme; 60 min at 25°C, then 4°C overnight; read-out: JAK1 JH2 Binding IC50
T1 construct: JAK1-JH2 domain or TYK2-JH2 domain enzyme in assay buffer
Method: Binding Activity test for JH2 domain of JAK1 and TYK2 […] Add 8μL/well in echo source plate, echo will add 75nL/well with 3-fold serial dilution for 11 points in assay plate. 75nL DMSO for high control and low control. […] For low control, add 5μL/well assay buffer. And then spin down at 1000rpm and centrifuge for 30 seconds. After enzyme system prepared, add 5μL of Tb-antibody solution into each well of assay plate. Spin down at 1000 rpm and centrifuge for 30sec. After Tb-antibody added, also add 5μL of tracer into the assay plate. Spin down at 1000rpm and centrifuge for 30sec. Incubate for […] at 25°C firstly and then continue to incubate the plate at 4°C overnight. Read by envision in FRET mode. The Luminescence value was recorded by a multi-label reader Envision (PerkinElmer). […] Table 2. IC50 on JH2 domain activity (nM)

[1] = system: Ba/F3-FL-TYK2-P760L cells; experiment: Anti-proliferative assay in engineered Ba/F3 cells (Cell-Titer Glo, 72 h); type: cell-based; conditions: concentration that causes 50% growth inhibition, read-out: Baf3-FL-T2P760L
Summary of the method: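 Ba/F3 cells carrying Tel-dimerization/JAK kinase fusion, IL-3-independent, in RPMI-1640 + 10% FBS; 9-point 3-fold dilutions from 20 µM (0.1% DMSO) added after 24 h, 72 h at 37 °C. Viability by Cell-Titer Glo ATP luminescence; % inhibition versus DMSO cells, blank-corrected, giving IC50.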

TYK2-JH2 domain = molecular target: T2, TYK2-JH2 domain (Homo sapiens, UniProt P29597); experiment: Binding activity test for JH2 domain of TYK2 (Tb-antibody/tracer FRET); conditions: for IC50: JH2 domain enzyme, 60 min at 25°C, then 4°C overnight, read-out: TYK2 JH2 Binding IC50; for JAK1/TYK2 selectivity: ratio of JAK1 JH2 to TYK2 JH2 binding IC50
T2 construct: JAK1-JH2 domain or TYK2-JH2 domain enzyme in assay buffer
Summary of the method: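 Competitive TR-FRET binding: compounds dispensed as an 11-point 3-fold dilution series, then Tb-labelled antibody and tracer added to the JH2 protein system. Incubated at 25°C, then overnight at 4°C; FRET signal read on Envision and IC50 (nM) derived.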

[2] = Mus musculus, BaF3, 72 h, 72 h compound treatment
[3] = Mus musculus, BaF3, 72 h compound treatment

T1 sequence (P23458 583-855 limits assumed): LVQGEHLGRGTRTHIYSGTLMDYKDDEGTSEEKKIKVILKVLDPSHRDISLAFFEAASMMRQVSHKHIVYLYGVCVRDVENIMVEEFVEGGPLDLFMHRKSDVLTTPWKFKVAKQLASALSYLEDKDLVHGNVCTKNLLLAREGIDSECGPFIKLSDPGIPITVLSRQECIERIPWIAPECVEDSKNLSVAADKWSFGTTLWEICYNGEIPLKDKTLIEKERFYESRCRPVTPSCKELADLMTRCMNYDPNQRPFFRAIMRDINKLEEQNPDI
T2 sequence (P29597 589-875 limits assumed): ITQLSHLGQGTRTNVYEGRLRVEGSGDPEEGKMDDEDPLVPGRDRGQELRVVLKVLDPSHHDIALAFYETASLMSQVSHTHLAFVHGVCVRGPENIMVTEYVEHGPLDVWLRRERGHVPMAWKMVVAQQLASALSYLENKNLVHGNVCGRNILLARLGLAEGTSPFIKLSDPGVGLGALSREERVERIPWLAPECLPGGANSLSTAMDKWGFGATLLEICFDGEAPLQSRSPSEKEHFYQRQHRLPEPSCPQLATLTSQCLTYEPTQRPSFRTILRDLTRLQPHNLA

Row | SMILES | IC50 (JAK1-JH2 domain) [nM] | IC50 ([1]; 72 h compound treatment) [nM] | IC50 (TYK2-JH2 domain) [nM] | JAK1/TYK2 selectivity (TYK2-JH2 domain) | IC50 [1, 2] [nM] | IC50 [1, 3] [nM]
1 | [2H]C([2H])([2H])NC(=O)c1cnc(NC(=O)C2CC23CC3)cc1Nc1cnn2ccc([C@H](O)C(F)(F)F)c(OC)c12 (single isomer, unassigned) [Example 32B, 4-((4-Methoxy-5-((S)-2,2,2-trifluoro-1-hydroxyethyl)pyrazolo[1,5-a]pyridin-3-yl)amino)-N-(methyl-d3)-6-((R*)-spiro[2.2]pentane-1-carboxamido)nicotinamide] | 11.5 | 27.3 | 0.108 | 106.2 | – | –
2 | [2H]C([2H])([2H])O[C@@H](c1ccn2ncc(Nc3cc(NC(=O)C4CC4)ncc3C(=O)OC)c2c1OC)C(F)(F)F [Example 47, Methyl (S)-6-(cyclopropanecarboxamido)-4-((4-methoxy-5-(2,2,2-trifluoro-1-(methoxy-d3)ethyl)pyrazolo[1,5-a]pyridin-3-yl)amino)nicotinate] | 46.5 | – | 0.221 | 210.20 | 70.6 | –
3 | [2H]C([2H])([2H])NC(=O)c1cnc(NC(=O)C2CC2)cc1Nc1cnn2ccc(C(O)(C(F)(F)F)C(F)(F)F)c(OC)c12 [Example 84, 6-(Cyclopropanecarboxamido)-4-((5-(1,1,1,3,3,3-hexafluoro-2-hydroxypropan-2-yl)-4-methoxypyrazolo[1,5-a]pyridin-3-yl)amino)-N-(methyl-d3)nicotinamide] | > 298 | – | 4.24 | >70.42 | – | 634
4 | [2H]C([2H])([2H])NC(=O)c1cnc(NC(=O)[C@@H]2C[C@@H]2F)cc1Nc1cnn2ccc(C(O)C(F)(F)F)c(OC)c12 (single isomer, unassigned) [Example 15B, 6-((1S,2S)-2-fluorocyclopropane-1-carboxamido)-4-((4-methoxy-5-((R*)-2,2,2-trifluoro-1-hydroxyethyl)pyrazolo[1,5-a]pyridin-3-yl)amino)-N-(methyl-d3)nicotinamide] | 20 | 870 | 0.375 | 53.3 | – | –
5 | CNC(=O)c1cnc(NC(=O)C2CC2)cc1Nc1nn(C)c2ccc([C@H](OC)C(F)(F)F)c(OC)c12 [Example 190, (S)-6-(Cyclopropanecarboxamido)-4-((4-methoxy-1-methyl-5-(2,2,2-trifluoro-1-methoxyethyl)-1H-indazol-3-yl)amino)-N-methylnicotinamide] | 1.95 | – | 0.076 | 25.71 | 0.196 | –
6 | [2H]C([2H])([2H])CC(=O)c1cnc(NC(=O)C2CC2)nc1Nc1cccc(-c2cnn(C)n2)c1OC [Example 167, N-(4-((2-methoxy-3-(2-methyl-2H-1,2,3-triazol-4-yl)phenyl)amino)-5-(propanoyl-3,3,3-d3)pyrimidin-2-yl)cyclopropanecarboxamide] | 32 | – | 0.275 | 116.34 | 60.9 | –
7 | [2H]C([2H])([2H])CC(=O)c1cnc(NC(=O)C2CC2)cc1Nc1nn(C)c2ccc(C(OC)C(F)(F)F)c(OC)c12 (single isomer, unassigned) [Example 65B, (S*)-N-(4-((4-methoxy-1-methyl-5-(2,2,2-trifluoro-1-methoxyethyl)-1H-indazol-3-yl)amino)-5-(propanoyl-3,3,3-d3)pyridin-2-yl)cyclopropanecarboxamide] | 12.5 | 2.1 | 0.09 | 144.84 | – | –
8 | [2H]C([2H])([2H])CC(=O)c1cnc(NC(=O)C2CC2)cc1Nc1nc2ccc(N3CC(OC)C3)cn2n1 [Example 64, N-[4-[[6-(3-methoxyazetidin-1-yl)-[1,2,4]triazolo[1,5-a]pyridin-2-yl]amino]-5-(3,3,3-trideuteriopropanoyl)-2-pyridyl]cyclopropanecarboxamide] | 34.7 | – | 0.141 | 246 | 13 | –
9 | [2H]C([2H])([2H])CC(=O)c1cnc(NC(=O)C2CC2)cc1Nc1nn(C)c2ccc(C(OC)C(F)(F)F)c(OC)c12 (single isomer, unassigned) [Example 65A, (R*)-N-(4-((4-methoxy-1-methyl-5-(2,2,2-trifluoro-1-methoxyethyl)-1H-indazol-3-yl)amino)-5-(propanoyl-3,3,3-d3)pyridin-2-yl)cyclopropanecarboxamide] | > 298 | 117 | 0.54 | >553.80 | – | –
10 | COC(=O)c1cnc(NC(=O)C2CC2)cc1Nc1cccc(-c2ccn(C)n2)c1OC [Example 60, Methyl 6-(cyclopropanecarboxamido)-4-((2-methoxy-3-(1-methyl-1H-pyrazol-3-yl)phenyl)amino)nicotinate] | 17.9 | – | 0.546 | 32.87 | 94.4 | –
11 | [2H]C([2H])([2H])NC(=O)c1cnc(NC(=O)[C@@H]2C[C@@H]2F)cc1Nc1cnn2cnc(OC)c(OC)c12 [Example 36, 4-((4,5-Dimethoxypyrazolo[1,5-c]pyrimidin-3-yl)amino)-6-((1S,2S)-2-fluorocyclopropane-1-carboxamido)-N-(methyl-d3)nicotinamide] | 255 | – | 4.55 | 56.0 | 1770 | –
12 | COC(=O)c1cnc(NC(=O)C2CC2)nc1Nc1cccc(-c2ncn(C)n2)c1OC [Example 56, Methyl 2-(cyclopropanecarboxamido)-4-((2-methoxy-3-(1-methyl-1H-1,2,4-triazol-3-yl)phenyl)amino)pyrimidine-5-carboxylate] | 52.6 | – | 0.967 | 54.42 | 148 | –
13 | COC(=O)c1cnc(NC(=O)C2CC2)cc1Nc1nccc(-c2cnn(C)n2)c1OC [Example 62, Methyl 6-(cyclopropanecarboxamido)-4-((3-methoxy-4-(2-methyl-2H-1,2,3-triazol-4-yl)pyridin-2-yl)amino)nicotinate] | 154 | – | 0.98 | 156.97 | > 1000 | –
14 | [2H]C([2H])([2H])OC(=O)c1cnc(NC(=O)C2CC2)cc1Nc1cnn2ccc([C@H](OC([2H])([2H])[2H])C(F)(F)F)c(OC)c12 [Example 80, Methyl-d3 (S)-6-(cyclopropanecarboxamido)-4-((4-methoxy-5-(2,2,2-trifluoro-1-(methoxy-d3)ethyl)pyrazolo[1,5-a]pyridin-3-yl)amino)nicotinate] | 46 | – | 0.26 | 176.08 | 88.9 | –
15 | CCC(F)(F)c1cnc(NC(=O)C2CC2)cc1Nc1cccc(-c2cnn(C)n2)c1OC [Example 184, N-(5-(1,1-Difluoropropyl)-4-((2-methoxy-3-(2-methyl-2H-1,2,3-triazol-4-yl)phenyl)amino)pyridin-2-yl)cyclopropanecarboxamide] | 6.85 | – | 0.216 | 31.71 | 14.9 | –
16 | COCOc1cnc(NC(=O)C2CC2)cc1Nc1cnn2ccc([C@H](OC)C(F)(F)F)c(OC)c12 [Example 94, (S)-N-(4-((4-methoxy-5-(2,2,2-trifluoro-1-methoxyethyl)pyrazolo[1,5-a]pyridin-3-yl)amino)-5-(methoxymethoxy)pyridin-2-yl)cyclopropanecarboxamide] | 193 | – | 141 | 1.37 | – | 4630
17 | COc1c([C@H](OC)C(F)(F)F)ccn2ncc(Nc3cc(NC(=O)C4CC4)ncc3C(=O)CC#N)c12 [Example 91, (S)-N-(5-(2-cyanoacetyl)-4-((4-methoxy-5-(2,2,2-trifluoro-1-methoxyethyl)pyrazolo[1,5-a]pyridin-3-yl)amino)pyridin-2-yl)cyclopropanecarboxamide] | > 298 | – | 5.24 | >56.93 | 1380 | –
18 | COC(=O)c1cnc(NC(=O)C2CC2)cc1Nc1nn(C)c2ccc([C@@H](O)C(F)(F)F)c(OC)c12 [Example 48B, Methyl (R)-6-(cyclopropanecarboxamido)-4-((4-methoxy-1-methyl-5-(2,2,2-trifluoro-1-hydroxyethyl)-1H-indazol-3-yl)amino)nicotinate] | 85.9 | – | 1.68 | 51.13 | 162 | –
